Data set [1] in a line: Chemical stability of the compound in 0.01 M borate buffer assessed as half life at pH 9.0 by HPLC analysis. Type of data set: physicochemical. The conditions noted are these: for t1/2: buffer; for half-life: 0.01 M borate buffer.
Data set [2] deals with Plasma. Put plainly: (§1) Metabolic stability of the compound in Wistar rat plasma assessed as half life at 1 uM by RP-HPLC analysis. The conditions noted are these: 1 µM. Type of data set: ADME, cell-free.
Data set [3] deals with Liver. Nature of the data set: (§2) Metabolic stability of the compound in Wistar rat liver S9 fraction assessed as half life at 1 uM by RP-HPLC analysis. Type of data set: ADME, subcellular. The conditions noted are these: s9, 1 µM.
The subject of data set [4] is Plasma. Nature of the data set: Hydrolytic rate constant, log k of the compound in Wistar rat plasma. Type of data set: ADME, cell-free.
In data set [5] the test system is Liver. Put plainly: Hydrolytic rate constant, log k of the compound in Wistar rat liver S9 fraction. Type of data set: ADME, subcellular.
Data set [6] is described as follows: Chemical stability of the compound in 0.01 M PBS assessed as compound remaining at pH 7.4 by HPLC analysis. The conditions noted are these: buffer.
Data set [7] can be described thus: as §1. Type of data set: ADME, cell-free. The conditions noted are these: Wistar.
Data set [8] can be described thus: as §2. Type of data set: ADME, subcellular. As to conditions: Wistar, liver S9 fraction.
A short description of data set [9]: Chemical stability of the compound in 0.01 M borate buffer assessed as half life at 1 uM and pH 9.0 by HPLC analysis. Type of data set: physicochemical.
Data set [10] in a line: Chemical stability of the compound in 0.01 M borate buffer assessed as half life at 300 nM and pH 9.0 by HPLC analysis. Type of data set: physicochemical.
The nature of data set [11]: Chemical stability of the compound in 0.01 M borate buffer assessed as half life at 100 nM and pH 9.0 by HPLC analysis. Type of data set: physicochemical.
Data set [12] has as its system Rattus norvegicus. Nature of the data set: In vivo displacement of [3H]-anandamide from rat brain FAAH after 30 mins by scintillation counting. Type of data set: functional. As to conditions: read-out: ID50 (the source's name).
The nature of data set [13]: Metabolic stability of the compound in Wistar rat liver S9 fraction at 1 uM measured after 90 mins by RP-HPLC analysis. Type of data set: ADME, subcellular. As to conditions: read-out: Stability.
The target of data set [14] is T1, Fatty-acid amide hydrolase 1 (Rattus norvegicus, UniProt P97612).
T1 sequence (P97612 whole entry): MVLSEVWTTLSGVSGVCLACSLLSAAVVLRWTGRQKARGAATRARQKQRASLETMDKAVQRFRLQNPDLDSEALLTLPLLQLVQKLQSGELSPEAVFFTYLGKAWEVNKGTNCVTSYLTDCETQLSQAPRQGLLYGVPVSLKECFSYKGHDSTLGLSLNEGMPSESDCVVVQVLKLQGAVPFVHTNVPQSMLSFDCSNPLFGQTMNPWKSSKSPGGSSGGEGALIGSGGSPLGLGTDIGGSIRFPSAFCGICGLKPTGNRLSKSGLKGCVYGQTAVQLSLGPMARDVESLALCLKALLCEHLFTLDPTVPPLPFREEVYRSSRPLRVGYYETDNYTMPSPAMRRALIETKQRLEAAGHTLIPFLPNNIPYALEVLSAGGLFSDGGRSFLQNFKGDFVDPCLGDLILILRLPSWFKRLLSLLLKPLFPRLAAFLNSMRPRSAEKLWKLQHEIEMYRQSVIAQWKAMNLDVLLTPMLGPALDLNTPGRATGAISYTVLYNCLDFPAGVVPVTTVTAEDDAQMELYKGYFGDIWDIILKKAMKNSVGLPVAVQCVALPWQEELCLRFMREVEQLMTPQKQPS
Nature of the data set: Displacement of [3H]-anandamide from rat brain FAAH after 30 mins by scintillation counting.

Data set [15] addresses T2, Fatty-acid amide hydrolase 1 (Rattus norvegicus) (UniProt P97612).
T2 sequence (whole entry): T1 sequence (P97612 whole entry)
Nature of the data set: Selectivity index, ratio URB524 pIC50 to compound pIC50 for displacement of [3H]-anandamide from rat brain FAAH after 30 mins by scintillation counting. Background: Loss of bound radioactivity is the signal in a displacement assay; it reports binding, not function.

The structures appear in SMILES notation.

In the case of `O=C(NCCc1ccccc1)Oc1cccc(-c2ccccc2)c1`, the t1/2 in [1] is 40 min; in data set [2], 22.1 min; in data set [3], 2.7 min. In addition, the Activity in [4] is reported as -1.5; in data set [5], -0.59. Further, the Stability in [6] is 34.9%.
For the compound `O=C(NCCCCCCN1CCOCC1)Oc1cccc(-c2ccccc2)c1`, the t1/2 was 33.4 min in [1], 8 min in data set [2] and 13 min in data set [3]. Also, the results for the Activity in [4] and in data set [5] were -1.06 and -1.27, respectively. The Stability in data set [6] is 30.9%.
Consider `NC(=O)c1cccc(-c2cccc(OC(=O)NCc3ccc4ccccc4c3)c2)c1`, for which the t1/2 in data set [1] was 13.9 min; in data set [2], 5.6 min; in data set [3], 39 min. For the same compound, the Stability in data set [6] is reported as 22.8%.
As usually defined, the half-life is how long it takes for the measured level to halve. Regarding `O=C(NC1CCCCC1)Oc1cccc(-c2ccccc2)c1`, the half-life in [1] is 40.7 min. The half-life at 1 µM turned out to be 42.7 min in [7], 6 min in [8] and 40.4 min in [9]. Further, in data set [10], the half-life at 0.3 µM was 42.7 min. Besides, the half-life at 0.1 µM in data set [11] is 42.3 min. Further, the Activity in data set [4] was -1.79; in data set [5], -0.94. The ED50 in data set [12] turned out to be 0.81 mg/kg. In data set [6], the Stability amounted to 41.1%.
Turning to `O=C(NC1Cc2ccccc2C1)Oc1cccc(-c2ccccc2)c1`, the t1/2 came to 22.4 min in data set [1], 16.5 min in data set [2] and 63.1 min in data set [3]. Also, the Activity in [4] is -1.38; in data set [5], -1.96. Further, the Stability in data set [6] turned out to be 16.2%.
As to `O=C(NC1CCCC1)Oc1cccc(-c2ccccc2)c1`, the t1/2 in data set [1] is on record as 45.1 min; in data set [2], 40 min; in data set [3] it was 2.5 min. The Activity in [4] is reported as -1.76; in [5], -0.56. Further, the Stability in data set [6] is 34.4%.
On to `O=C(NCc1ccccc1)Oc1cccc(-c2ccccc2)c1`, for which the t1/2 in data set [1] was found to be 26.5 min; in [2], 14.3 min; in data set [3], 10.8 min. Further, the Activity in [4] was -1.32; in [5], -1.19. For the same compound, the Stability in data set [6] turned out to be 22.7%.
Turning to `O=C(NCc1ccc2ccccc2c1)Oc1cccc(-c2ccccc2)c1`, the values for the t1/2 in data set [1], in data set [2] and in data set [3] were 23.9 min, 1 min and 27.5 min, respectively. For the same compound, the figures for the Activity in data set [4] and in data set [5] were -0.17 and -1.6, respectively. Further, the Stability in data set [6] was 18.4%.
With `O=C(NC1CCC1)Oc1cccc(-c2ccccc2)c1`, the t1/2 in data set [1] was 27.5 min; in [2] it was 19.9 min; in data set [3], 2.5 min. The Activity is given as -1.46 in data set [4] and -0.56 in data set [5]. Also, the Stability in [6] is 22.6%.
For the compound `NC(=O)c1cccc(-c2cccc(OC(=O)NC3CCCCC3)c2)c1` [URB-597], in data set [1], the half-life came out at 33 min. The half-life at 1 µM in data set [7] turned out to be 33 min; in data set [8] it was 58.7 min. For the same compound, the Stability in data set [6] worked out at 40.2%.
With `O=C(NC12CC3CC(CC(C3)C1)C2)Oc1cccc(-c2ccccc2)c1`, the t1/2 in data set [2] came out at 183.3 min. Further, the half-life at 1 µM in [9] amounted to 266 min. In [10], the half-life at 0.3 µM came out at 262 min. In addition, in data set [11], the half-life at 0.1 µM was 264 min. The Activity in data set [4] is reported as -2.42. The remaining at 1.5 h, 1 µM in data set [13] was determined as 99.2%. Also, in data set [6], the Stability amounted to 66.7%.
Take `CNC(=O)Oc1cccc(-c2ccccc2)c1`: the t1/2 in data set [1] was 43.8 min; in data set [2] it was 3.8 min; in [3], 7.4 min. Besides, the Activity is on record as -0.74 in data set [4] and -1.03 in data set [5]. Besides, the Stability in data set [6] worked out at 33.9%.
With `CCCCCCNC(=O)Oc1cccc(-c2ccccc2)c1`, the t1/2 is given as 68.3 min in [1], 7.5 min in data set [2] and 8 min in data set [3]. The Activity was -1.03 in data set [4] and -1.06 in data set [5]. Besides, the Stability in data set [6] is recorded as 46.7%.
For the compound `O=C(NCCCCCCc1ccccc1)Oc1cccc(-c2ccccc2)c1`, the figures for the t1/2 in [1], in data set [2] and in data set [3] were 73.8 min, 8.4 min and 39.4 min, respectively. The figures for the Activity in data set [4] and in [5] were -1.08 and -1.75, respectively. Also, the Stability in data set [6] is on record as 61.1%.
In the case of `O=C(NCC1CCCCC1)Oc1cccc(-c2ccccc2)c1`, the results for the t1/2 in data set [1], in [2] and in data set [3] were 104.8 min, 15.3 min and 9.8 min, respectively. Further, the Activity in [4] is given as -1.35; in [5], -1.15. Besides, the Stability in data set [6] worked out at 65.4%.
As to `O=C(NCc1cccc2ccccc12)Oc1cccc(-c2ccccc2)c1`, the t1/2 in data set [1] was determined as 38.7 min; in data set [2], 7.3 min; in [3] it was 46.8 min. Besides, the Activity in data set [4] was -1.03; in data set [5], -1.83. The Stability in [6] turned out to be 24.8%.
As usually defined, the pIC50 is the IC50 on a negative log10 scale, so that one unit is a factor of ten. High values mean a small IC50, low ones a large IC50. In the case of `NC(=O)c1cccc(-c2cccc(OC(=O)NCCCCc3ccccc3)c2)c1`, the results for the t1/2 in [1], in data set [2] and in data set [3] were 30.3 min, 4.2 min and 46.9 min, respectively. In data set [14], this compound displayed a pIC50 of 9.48. The Stability in data set [6] stood at 18.8%.
Regarding `O=C(NCCCCc1ccccc1)Oc1cccc(-c2ccccc2)c1`, the t1/2 in [2] worked out at 6.6 min; in data set [3] it was 19.3 min. Moreover, in [9], the half-life at 1 µM is 43.1 min. Further, in data set [10], the half-life at 0.3 µM amounted to 42 min. Besides, in [11], the half-life at 0.1 µM was 41.7 min. Further, the Activity in data set [4] is on record as -0.98; in [5] it was -1.44. The ED50 in [12] came out at 0.96 mg/kg. The Ratio pIC50 in data set [15] is 10. Besides, the Stability in data set [6] is on record as 35.9%.
`CC(C)NC(=O)Oc1cccc(-c2ccccc2)c1`: the figures for the t1/2 in data set [1], in data set [2] and in data set [3] were 61.8 min, 20 min and 1.9 min, respectively. Moreover, the Activity is recorded as -1.46 in [4] and -0.45 in [5]. The Stability in data set [6] is 34.6%.
For `CCCCNC(=O)Oc1cccc(-c2ccccc2)c1`, the t1/2 in data set [1] amounted to 42.9 min; in data set [2] it was 21.6 min; in data set [3], 1.8 min. Moreover, the Activity in [4] is on record as -1.49; in data set [5] it was -0.41. In addition, in [6], the Stability was 46.7%.

(Values after ChEMBL document CHEMBL1828508, “Biphenyl-3-yl alkylcarbamates as fatty acid amide hydrolase (FAAH) inhibitors: steric effects of N-alkyl chain on rat plasma and liver stability” (Eur J Med Chem, 2011).)
